These results are taken from patent publication US9745324B2, “Iminothiadiazepane dioxide compounds as BACE inhibitors, compositions, and their use” (Merck Sharp & Dohme Corp., priority 2013, dated 2017).

Assay [1] concerns the target soluble human BACE1 catalytic domain (Homo sapiens (Human), UniProt P56817). The experiment in a line: BACE1 HTRF FRET Assay. Conditions: Ki calculated from IC50 using the Cheng-Prusoff equation; QSY7-APPswe-Eu substrate, pH 5.0. In kind it is biochemical. The source says:
Reagents: Na^+-Acetate pH 5.0; 1% Brij-35; Glycerol; Dimethyl Sulfoxide (DMSO); Recombinant human soluble BACE1 catalytic domain (>95% pure); APP Swedish mutant peptide substrate (QSY7-APP^swe-Eu): QSY7-[…]-Europium-amide (SEQ ID 1).
A homogeneous time-resolved FRET assay can be used to determine IC50 values for inhibitors of the soluble human BACE1 catalytic domain. This assay monitors the increase of 620 nm fluorescence that resulted from BACE1 cleavage of an APPswedish APP^swe mutant peptide FRET substrate (QSY7-[…]-Europium-amide (SEQ ID 1)). This substrate contains an N-terminal QSY7 moiety that serves as a quencher of the C-terminal Europium fluorophore (620 nm Em). […] Inhibition of BACE1 cleavage of the QSY7-APP^swe-Eu substrate by inhibitors is manifested as a suppression of 620 nm fluorescence.
Varying concentrations of inhibitors at 3× the final desired concentration in a volume of 10 ul are preincubated with purified human BACE1 catalytic domain (3 nM in 10 μl) for 30 minutes at 30° C. in reaction buffer containing 20 mM Na-Acetate pH 5.0, 10% glycerol, 0.1% Brij-35 and 7.5% DSMO. Reactions are initiated by addition of 10 μl of 600 nM QSY7-APP^swe-Eu substrate (200 nM final) to give a final reaction volume of 30 μl in a 384 well Nunc HTRF plate. The reactions are incubated at 30° C. for 1.5 hours. The 620 nm fluorescence is then read on a Rubystar HTRF plate reader (BMG Labtechnologies) using a 50 millisecond delay followed by a 400 millisecond acquisition time window. Inhibitor IC50 values are derived from non-linear regression analysis of concentration response curves.

Assay [2] deals with purified human autoBACE-2 (Homo sapiens, UniProt Q9Y5Z0). The experiment in a line: BACE-2 Assay (BACE-HTRF assay). It counts as biochemical. Particulars: Ki calculated from IC50 using the Cheng-Prusoff equation, pH 5.0, read-out: BACE2 Ki. On the procedure:
DMSO is present at 5% final concentration in the assay. Following laser excitation of sample wells at 320 nm, the fluorescence signal at 620 nm is collected for 400 ms following a 50 μs delay on a RUBYstar HTRF plate reader (BMG Labtechnologies). Raw RFU data is normalized to maximum (1.0 nM BACE/DMSO) and minimum (no enzyme/DMSO) RFU values. […] The Ki values are calculated from the IC50 using the Cheng-Prusoff equation.

Setting [3] is: QSY7-EISEVNLDAEFC-Eu-amide substrate.

pKi: −log10 of the molar value. Where two headings read alike, the source gives them in different places.

soluble human BACE1 catalytic domain, sequence (P56817 75-416): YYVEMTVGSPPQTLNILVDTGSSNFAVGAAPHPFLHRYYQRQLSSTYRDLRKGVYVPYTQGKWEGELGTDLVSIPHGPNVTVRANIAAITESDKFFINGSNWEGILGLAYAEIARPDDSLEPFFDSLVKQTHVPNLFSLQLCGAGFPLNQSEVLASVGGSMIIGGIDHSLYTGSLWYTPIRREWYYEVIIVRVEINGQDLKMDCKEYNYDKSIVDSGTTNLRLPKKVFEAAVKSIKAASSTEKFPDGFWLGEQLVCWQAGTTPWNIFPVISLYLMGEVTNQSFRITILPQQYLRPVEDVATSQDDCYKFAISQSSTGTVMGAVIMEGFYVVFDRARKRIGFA
purified human autoBACE-2, sequence (Q9Y5Z0 63-518 limits assumed): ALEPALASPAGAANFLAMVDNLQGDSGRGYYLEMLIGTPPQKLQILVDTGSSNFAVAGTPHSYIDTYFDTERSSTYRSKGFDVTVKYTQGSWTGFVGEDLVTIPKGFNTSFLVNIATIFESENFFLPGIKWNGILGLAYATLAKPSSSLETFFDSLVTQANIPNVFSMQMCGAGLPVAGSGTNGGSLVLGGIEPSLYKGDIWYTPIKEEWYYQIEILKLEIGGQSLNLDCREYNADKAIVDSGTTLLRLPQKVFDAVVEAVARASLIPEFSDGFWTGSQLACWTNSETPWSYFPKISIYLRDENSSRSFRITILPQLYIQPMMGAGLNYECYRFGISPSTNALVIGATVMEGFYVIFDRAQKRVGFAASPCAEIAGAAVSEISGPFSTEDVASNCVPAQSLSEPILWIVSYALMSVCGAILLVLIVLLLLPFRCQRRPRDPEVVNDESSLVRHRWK

As to `CO[C@H](C)C(=O)Nc1ccc(F)c([C@]2(C)CN(C)S(=O)(=O)C(C)(C)C(=N)N2)c1` [Example 29, (2R)-N-{4-fluoro-3-[(4R)-6-imino-2,4,7,7-tetramethyl-1,1-dioxido-1,2,5-thiadiazepan-4-yl]phenyl}-2-methoxypropanamide], the pKi is 5.33 in assay [1] and 6.10 in assay [2] (setting [3]).

Take `CN1C[C@@](C)(c2cc(Nc3nccc4cc(Br)cnc34)ccc2F)NC(=N)C(C)(C)S1(=O)=O` [Example 42, (R)-4-(5-((3-bromo-1,7-naphthyridin-8-yl)amino)-2-fluorophenyl)-6-imino-2,4,7,7-tetramethyl-1,2,5-thiadiazepane 1,1-dioxide]: the pKi in assay [1] was 7.74; in assay [2] (QSY7-[…]-Eu-amide substrate), 8.05.

For `COc1cnc2c(Nc3ccc(F)c([C@]4(C)CN(C)S(=O)(=O)C(C)(C)C(=N)N4)c3)nccc2c1` [Example 43, (R)-4-(2-fluoro-5-((3-methoxy-1,7-naphthyridin-8-yl)amino)phenyl)-6-imino-2,4,7,7-tetramethyl-1,2,5-thiadiazepane 1,1-dioxide], the pKi in assay [1] is 6.68; in assay [2] (QSY7-[…]-Eu-amide substrate), 6.62.

Regarding `CN1C[C@@](C)(c2cc(NC(=O)C3CC3)ccc2F)NC(=N)C(C)(C)S1(=O)=O` [Example 33, N-{4-fluoro-3-[(4R)-6-imino-2,4,7,7-tetramethyl-1,1-dioxido-1,2,5-thiadiazepan-4-yl]phenyl}cyclopropanecarboxamide], the values for the pKi in assay [1] and in assay [2] (setting [3]) were 5.36 and 5.99, respectively.

Turning to `COc1cnc(C(=O)Nc2ccc(F)c([C@]3(C)CN(C)S(=O)(=O)C(C)(C)C(=N)N3)c2)cn1` [Example 1, N-{4-fluoro-3-[(4R)-6-imino-2,4,7,7-tetramethyl-1,1-dioxido-1,2,5-thiadiazepan-4-yl]phenyl}-5-methoxypyrazine-2-carboxamide], the pKi was 7.43 in assay [1] and 6.99 in assay [2] (setting [3]).

Consider `CN1C[C@@](C)(c2cc(NC(=O)c3cn4ccc(C#N)cc4n3)ccc2F)NC(=N)C(C)(C)S1(=O)=O` [Example 17, 7-cyano-N-{4-fluoro-3-[(4R)-6-imino-2,4,7,7-tetramethyl-1,1-dioxido-1,2,5-thiadiazepan-4-yl]phenyl}imidazo[1,2-a]pyridine-2-carboxamide], for which the pKi in assay [1] was 5.25; in assay [2] (setting [3]) it was 5.13.

As to `CO[C@@H](C)C(=O)Nc1ccc(F)c([C@]2(C)CN(C)S(=O)(=O)C(C)(C)C(=N)N2)c1` [Example 34, (2S)-N-{4-fluoro-3-[(4R)-6-imino-2,4,7,7-tetramethyl-1,1-dioxido-1,2,5-thiadiazepan-4-yl]phenyl}-2-methoxypropanamide], the pKi in assay [1] is 5.51; in assay [2] (setting [3]), 5.95.

Consider `CN1C[C@@](C)(c2cc(NC(=O)c3cnsn3)ccc2F)NC(=N)C(C)(C)S1(=O)=O` [Example 16, N-{4-fluoro-3-[(4R)-6-imino-2,4,7,7-tetramethyl-1,1-dioxido-1,2,5-thiadiazepan-4-yl]phenyl}-1,2,5-thiadiazole-3-carboxamide], for which the pKi in assay [1] was 7.19; in assay [2] (setting [3]), 7.60.

As for `COc1ccc(C(=O)Nc2ccc(F)c([C@]3(C)CN(C)S(=O)(=O)C(C)(C)C(=N)N3)c2)nc1` [Example 6, N-{4-fluoro-3-[(4R)-6-imino-2,4,7,7-tetramethyl-1,1-dioxido-1,2,5-thiadiazepan-4-yl]phenyl}-5-methoxypyridine-2-carboxamide], the pKi in assay [1] was 7.48; in assay [2] (setting [3]), 7.36.

With `CN1C[C@@](C)(c2cc(OCc3ccc(C#N)cc3)ccc2F)NC(=N)C(C)(C)S1(=O)=O` [Example 40, (R)-4-((4-fluoro-3-(6-imino-2,4,7,7-tetramethyl-1,1-dioxido-1,2,5-thiadiazepan-4-yl)phenoxy)methyl)benzonitrile], the pKi is 6.19 in assay [1] and 5.39 in assay [2] (QSY7-[…]-Eu-amide substrate).

Turning to `CN1C[C@@](C)(c2cc(NC(=O)c3cnc(OCC(F)(F)F)cn3)ccc2F)NC(=N)C(C)(C)S1(=O)=O` [Example 12, N-{4-fluoro-3-[(4R)-6-imino-2,4,7,7-tetramethyl-1,1-dioxido-1,2,5-thiadiazepan-4-yl]phenyl}-5-(2,2,2-trifluoroethoxy)pyrazine-2-carboxamide], the values for the pKi in assay [1] and in assay [2] (setting [3]) were 7.77 and 6.77, respectively.

For the molecule `C#CCOc1ccc(C(=O)Nc2ccc(F)c([C@]3(C)CN(C)S(=O)(=O)C(C)(C)C(=N)N3)c2)nc1` [Example 36, N-{4-fluoro-3-[(4R)-6-imino-2,4,7,7-tetramethyl-1,1-dioxido-1,2,5-thiadiazepan-4-yl]phenyl}-5-(prop-2-yn-1-yloxy)pyridine-2-carboxamide], the pKi in assay [1] was 7.82; in assay [2] (setting [3]), 6.71.

`C#CCOc1cnc(C(=O)Nc2ccc(F)c([C@]3(C)CN(C)S(=O)(=O)C(C)(C)C(=N)N3)c2)cn1` [Example 39, N-{4-fluoro-3-[(4R)-6-imino-2,4,7,7-tetramethyl-1,1-dioxido-1,2,5-thiadiazepan-4-yl]phenyl}-5-(prop-2-yn-1-yloxy)pyrazine-2-carboxamide]: the figures for the pKi in assay [1] and in assay [2] (setting [3]) were 8.64 and 7.46, respectively.

Take `COc1cnc(C(=O)Nc2ccc(F)c([C@]3(C)CN(C)S(=O)(=O)C(C)(C)C(=N)N3)c2)c(C)c1` [Example 9, N-{4-fluoro-3-[(4R)-6-imino-2,4,7,7-tetramethyl-1,1-dioxido-1,2,5-thiadiazepan-4-yl]phenyl}-5-methoxy-3-methylpyridine-2-carboxamide]: the values for the negative logarithm of the Ki (pKi) in assay [1] and in assay [2] (setting [3]) were 7.17 and 7.49, respectively.

Take `CN1C[C@@](C)(c2cc(NC(=O)c3ccc(F)cn3)ccc2F)NC(=N)C(C)(C)S1(=O)=O` [Example 3, 5-fluoro-N-{4-fluoro-3-[(4R)-6-imino-2,4,7,7-tetramethyl-1,1-dioxido-1,2,5-thiadiazepan-4-yl]phenyl}pyridine-2-carboxamide]: the pKi was 7.27 in assay [1] and 7.89 in assay [2] (setting [3]).

In the case of `CN1C[C@@](C)(c2cc(NC(=O)CC3CC3)ccc2F)NC(=N)C(C)(C)S1(=O)=O` [Example 30, 2-cyclopropyl-N-{4-fluoro-3-[(4R)-6-imino-2,4,7,7-tetramethyl-1,1-dioxido-1,2,5-thiadiazepan-4-yl]phenyl}acetamide], the pKi in assay [1] is less than 5.01; in assay [2] (setting [3]), 5.66.

Regarding `CN1C[C@@](C)(c2cc(NC(=O)c3ncc(C(F)(F)F)cn3)ccc2F)NC(=N)C(C)(C)S1(=O)=O` [Example 31, N-{4-fluoro-3-[(4R)-6-imino-2,4,7,7-tetramethyl-1,1-dioxido-1,2,5-thiadiazepan-4-yl]phenyl}-5-(trifluoromethyl)pyrimidine-2-carboxamide], the pKi was 6.72 in assay [1] and 6.69 in assay [2] (setting [3]).

As for `CN1C[C@@](C)(c2cc(NC(=O)C(F)F)ccc2F)NC(=N)C(C)(C)S1(=O)=O` [Example 28, 2,2-difluoro-N-{4-fluoro-3-[(4R)-6-imino-2,4,7,7-tetramethyl-1,1-dioxido-1,2,5-thiadiazepan-4-yl]phenyl}acetamide], the pKi in assay [1] is 5.92; in assay [2] (setting [3]), 6.45.

As for `CN1C[C@@](C)(c2cc(NC(=O)c3cnccn3)ccc2F)NC(=N)C(C)(C)S1(=O)=O` [Example 13, N-{4-fluoro-3-[(4R)-6-imino-2,4,7,7-tetramethyl-1,1-dioxido-1,2,5-thiadiazepan-4-yl]phenyl}pyrazine-2-carboxamide], the pKi was 6.58 in assay [1] and 6.96 in assay [2] (setting [3]).

As to `Cc1cc(C(=O)Nc2ccc(F)c([C@]3(C)CN(C)S(=O)(=O)C(C)(C)C(=N)N3)c2)on1` [Example 22, N-{4-fluoro-3-[(4R)-6-imino-2,4,7,7-tetramethyl-1,1-dioxido-1,2,5-thiadiazepan-4-yl]phenyl}-3-methylisoxazole-5-carboxamide], the pKi is 5.77 in assay [1] and 5.99 in assay [2] (setting [3]).

As to `CN1C[C@@](C)(c2cc(NC(=O)c3cn4ccsc4n3)ccc2F)NC(=N)C(C)(C)S1(=O)=O` [Example 27, N-{4-fluoro-3-[(4R)-6-imino-2,4,7,7-tetramethyl-1,1-dioxido-1,2,5-thiadiazepan-4-yl]phenyl}imidazo[2,1-b][1,3]thiazole-6-carboxamide], the pKi in assay [1] was 6.55; in assay [2] (setting [3]), 7.34.

With `CN1C[C@@](C)(c2cc(NC(=O)c3ccc(Cl)cn3)ccc2F)NC(=N)C(C)(C)S1(=O)=O` [Example 7, 5-chloro-N-{4-fluoro-3-[(4R)-6-imino-2,4,7,7-tetramethyl-1,1-dioxido-1,2,5-thiadiazepan-4-yl]phenyl}pyridine-2-carboxamide], the pKi in assay [2] (setting [3]) is 8.10.

One may read the pKi as the negative decadic logarithm of the Ki, by convention in mol/L.
